Test results as given in ChEMBL document CHEMBL3871282, “Neo-tanshinlactone D-ring modified novel analogues induce apoptosis in human breast cancer cell via DNA damage” (Bioorg Med Chem, 2017).

How the values were obtained:
[1] = Cytotoxicity against human HCT116 cells assessed as cell growth inhibition after 24 hrs by MTT assay; type: functional, cell-based; conditions: HCT-116, 24 h
[2] = Cytotoxicity against human MCF7 ER positive, PR positive/negative,HER2 negative cells assessed as cell growth inhibition after 24 hrs by MTT assay; type: functional, cell-based; conditions: MCF7, 24 h
[3] = Cytotoxicity against human MDA-MB-231 ER negative, PR negative,HER2 negative cells assessed as cell growth inhibition after 24 hrs by MTT assay; type: functional, cell-based; conditions: MDA-MB-231, 24 h
[4] = Cytotoxicity against human SKBR3 ER negative, PR negative,HER2 positive cells assessed as cell growth inhibition after 24 hrs by MTT assay; type: functional, cell-based; conditions: SK-BR-3, 24 h
[5] = Cytotoxicity against human HepG2 cells assessed as cell growth inhibition after 24 hrs by MTT assay; type: functional, cell-based; conditions: HepG2, 24 h
[6] = Cytotoxicity against human HeLa cells assessed as cell growth inhibition after 24 hrs by MTT assay; type: functional, cell-based
[7] = Cytotoxicity against human HaCaT cells assessed as cell growth inhibition after 24 hrs by MTT assay; type: toxicity, cell-based
[8] = Cytotoxicity against human WI38 cells assessed as cell growth inhibition after 24 hrs by MTT assay; type: toxicity, cell-based, WI-38
[9] = Cytotoxicity against human breast cancer cells assessed as cell growth inhibition after 3 days by SRB assay; type: functional, Cancer cell lines

O=C(Oc1cc(=O)[nH]c2c1ccc1ccccc12)c1ccc(F)cc1F
IC50 [1]: 92.8 µM
IC50 [2]: 63.4 µM
IC50 [3]: 70.2 µM
IC50 [4]: 67.1 µM
IC50 [5]: 67.5 µM
IC50 [6]: 68.9 µM

O=c1cc(OCc2nc3ccccc3[nH]2)c2ccc3ccccc3c2[nH]1
IC50 [1]: 0.0672 µM
IC50 [2]: 0.0383 µM
IC50 [3]: 0.117 µM
IC50 [4]: 0.103 µM
IC50 at 24 h [7]: > 100 µM
IC50 [5]: 44.2 µM
IC50 at 24 h [8]: > 100 µM
IC50 [6]: 34.9 µM

O=C(/C=C/c1ccc([N+](=O)[O-])cc1)Oc1cc(=O)[nH]c2c1ccc1ccccc12
IC50 [1]: 76.1 µM
IC50 [2]: 37.9 µM
IC50 [3]: 43.9 µM
IC50 [4]: 38.4 µM
IC50 [5]: 99.1 µM
IC50 [6]: 90 µM

O=c1cc(OS(=O)(=O)c2ccc(C(F)(F)F)cc2)c2ccc3ccccc3c2[nH]1
IC50 [1]: 150 µM
IC50 [2]: 120 µM
IC50 [3]: 139 µM
IC50 [4]: 131 µM
IC50 [5]: > 200 µM
IC50 [6]: > 200 µM

O=C(Oc1cc(=O)[nH]c2c1ccc1ccccc12)c1ccccc1
IC50 [1]: 64 µM
IC50 [2]: 30.6 µM
IC50 [3]: 49.3 µM
IC50 [4]: 42.6 µM
IC50 [5]: 83.1 µM
IC50 [6]: 81 µM

O=c1cc(OCc2ccc([N+](=O)[O-])cc2)c2ccc3ccccc3c2[nH]1
IC50 [1]: 0.0881 µM
IC50 [2]: 0.0665 µM
IC50 [3]: 0.181 µM
IC50 [4]: 0.153 µM
IC50 at 24 h [7]: > 100 µM
IC50 [5]: 41.3 µM
IC50 at 24 h [8]: > 100 µM
IC50 [6]: 39.7 µM

CCC(=O)Oc1cc(=O)[nH]c2c1ccc1ccccc12
IC50 [1]: 52 µM
IC50 [2]: 20.9 µM
IC50 [3]: 34.5 µM
IC50 [4]: 30.6 µM
IC50 [5]: 55.1 µM
IC50 [6]: 59.2 µM

O=C(Oc1cc(=O)[nH]c2c1ccc1ccccc12)c1ccc([N+](=O)[O-])cc1
IC50 [1]: 84.1 µM
IC50 [2]: 45.9 µM
IC50 [3]: 69.4 µM
IC50 [4]: 56.4 µM
IC50 [5]: 103 µM
IC50 [6]: 85.3 µM

O=c1cc(OS(=O)(=O)c2ccc(F)cc2)c2ccc3ccccc3c2[nH]1
IC50 [1]: 168 µM
IC50 [2]: 132 µM
IC50 [3]: 157 µM
IC50 [4]: 144 µM
IC50 [5]: > 200 µM
IC50 [6]: > 200 µM

CCCC(=O)Oc1cc(=O)[nH]c2c1ccc1ccccc12
IC50 [1]: 23.3 µM
IC50 [2]: 11.3 µM
IC50 [3]: 38.2 µM
IC50 [4]: 31.1 µM
IC50 [5]: 35.2 µM
IC50 [6]: 62 µM

Cc1cccc2c1ccc1c3occ(C)c3c(=O)oc21
GI [9]: 9.65 µM

COc1ccc(COc2cc(=O)[nH]c3c2ccc2ccccc23)cc1
IC50 [1]: 0.0752 µM
IC50 [2]: 0.0487 µM
IC50 [3]: 0.178 µM
IC50 [4]: 0.166 µM
IC50 at 24 h [7]: > 100 µM
IC50 [5]: 42.2 µM
IC50 at 24 h [8]: > 100 µM
IC50 [6]: 42.7 µM

CC(C)CC(=O)Oc1cc(=O)[nH]c2c1ccc1ccccc12
IC50 [1]: 27.6 µM
IC50 [2]: 11.9 µM
IC50 [3]: 57.4 µM
IC50 [4]: 39.8 µM
IC50 [5]: 73.1 µM
IC50 [6]: 45.4 µM
